System: human lymphoma cell line RAMOS cells
Assay: Cell growth inhibition test using RAMOS cell, MTT assay
Assay type: cell-based
Conditions: 50% growth inhibition concentration
How it was run: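 Cells in RPMI1640 with 10% FBS were exposed to compound (DMSO ≤1%) for 3 days at 37° C, 5% CO2. Viability was read by MTT (4 h, formazan in DMSO, OD 540/660 nm) against a day-0 plate; GI50 was interpolated from T/C % growth rates.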

CCOc1cc(F)c(Cl)cc1C(=O)NCC(C)(C)CC(=O)Nc1c(COC)n(C)n(-c2ccccc2)c1=O [Example 113, 5-Chloro-2-ethoxy-4-fluoro-N-(4-{[5-(methoxymethyl)-1-methyl-3-oxo-2-phenyl-2,3-dihydro-1H-pyrazol-4-yl]amino}-2,2-dimethyl-4-oxobutyl)benzamide]
GI50: 47 nM

Reference: patent US20170107207A1, “AMINOPYRAZOLONE DERIVATIVE” (DAIICHI SANKYO COMPANY, LIMITED, priority 2014, published 2017)
